Molecules are shown by their SMILES.

`CCC(=O)C(CCN(C)C)(c1ccccc1)c1ccc(F)cc1` (stereo not drawn): the logP was 4.19.
Next, `CCC(=O)C(CCN(C)C)(c1ccccc1)c1ccc(O)cc1` (stereo not drawn): 3.45; `CCC(=O)C(CCN(C)C)(c1ccc(F)cc1)c1ccc(F)cc1`: 4.84.
For `CCC(=O)C(CCN(C)C)(c1ccccc1)C1CCCCC1` (stereo not drawn), the logP is 5.13.
To `CCC(=O)C(CCN(C)C)(c1ccccc1)c1ccc(C)cc1` (stereo not drawn) belongs 4.93; to `CCC(=O)C(CCN(C)C)(c1ccccc1)C1CCCCCC1` (stereo not drawn), 5.91; to `CCC(=O)C(CCN(C)C)(c1ccccc1)c1ccc(SC)cc1` (stereo not drawn), 4.96.
`CCC(=O)C(CCN(C)C)(c1ccccc1)c1ccc(Cl)cc1` (stereo not drawn) gave a logP of 4.9.
To `CCC(=O)C(CCN(C)C)(c1ccccc1)c1cccc(F)c1` (stereo not drawn) belongs 4.17; to `CCC(=O)C(CCN(C)C)(c1ccccc1)c1ccc(Br)cc1` (stereo not drawn), 5.23; to `CCC(=O)C(CCN(C)C)(c1ccccc1)c1ccc(OC)cc1` (stereo not drawn), 4.28.
On to `CCC(=O)C(CCN(C)C)(c1ccccc1)c1ccccc1`, for which the log partition coefficient (logP) came out at 4.15. This logP and that of the compound before are within 0.2 log units of each other.
`CCC(=O)C(CCN(C)C)(c1ccccc1)C1CCCC1` (stereo not drawn): the logP came to 4.53.

The term logP denotes a log measure of how a compound divides between an organic and an aqueous phase. A higher logP goes with higher lipophilicity.

The values above are taken from the SangsterLogP compilation.
